# Measured values published in EPA's ToxRefDB 2.
# Columns and labels:
# rat [1] = conditions: Sub-acute repeat dose toxicity, sprague dawley, Oral, Gavage/Intubation, dose end: 14 day, group: systemic
# dog [2] = conditions: Subchronic oral toxicity in nonrodent, beagle, Gavage/Intubation, dose end: 91 day, group: systemic
# rat [3] = conditions: Sub-acute repeat dose toxicity; Oral; Gavage/Intubation; dose end: 7 day; group: systemic; systemic / hematology / erythrocyte (rbc) count differential / erythrocyte (rbc) + systemic / hematology / hematocrit (hct) / hematocrit (…
# rat [4] = conditions: Sub-acute repeat dose toxicity, sprague dawley, Oral, Gavage/Intubation, dose end: 10 day, group: systemic
# rat [5] = conditions: Subchronic oral toxicity in rodents, sprague dawley, Gavage/Intubation, dose end: 93 day, group: systemic
# dog [6] = conditions: Sub-acute repeat dose toxicity; beagle; Oral; Gavage/Intubation; dose end: 14 day; group: systemic; systemic / clinical chemistry / [other] / [other]
# rat [7] = conditions: Prenatal developmental toxicity study, other, Oral, Gavage/Intubation, dose end: 17 GD
# rat [8] = conditions: Prenatal developmental toxicity study, sprague dawley, Oral, Gavage/Intubation, dose end: 17 GD
# rabbit [9] = conditions: Prenatal developmental toxicity study, new zealand white, Oral, Gavage/Intubation, dose end: 19 GD
# rabbit [10] = conditions: Prenatal developmental toxicity study; new zealand white; Oral; Gavage/Intubation; dose end: 19 GD; group: maternal; systemic / in life observation / body weight / body weight + systemic / in life observation / body weight / body weight gain + systemic / in…
# rat [11] = conditions: Subchronic oral toxicity in rodents, fischer, Gavage/Intubation, dose end: 13 week, group: systemic
# mouse [12] = conditions: Carcinogenicity, b6c3f1, Oral, Gavage/Intubation, dose end: 2 year, group: systemic
# mouse [13] = conditions: Subchronic oral toxicity in rodents, b6c3f1, Gavage/Intubation, dose end: 13 week, group: systemic
# rat [14] = conditions: Combined chronic toxicity/carcinogenicity; fischer; Oral; Gavage/Intubation; dose end: 2 year; group: systemic; systemic / in life observation / mortality / mortality + systemic / pathology microscopic / lung / foreign body + systemic / pathology …
# [15] = systemic / clinical chemistry / [other] / [other] + systemic / in life observation / clinical signs / [other] + systemic / in life …
# [16] = systemic / in life observation / clinical signs / [other]
# [17] = systemic / in life observation / clinical signs / abnormal feces + systemic / in life observation / clinical signs / emesis
# [18] = systemic / in life observation / clinical signs / abnormal feces + systemic / in life observation / clinical signs / emesis + systemic / …
# [19] = systemic / in life observation / body weight / body weight gain + systemic / in life observation / food consumption / food consumption
# [20] = systemic / in life observation / food consumption / food consumption
# [21] = systemic / in life observation / clinical signs / [other] + systemic / in life observation / clinical signs / salivation
# [22] = group: developmental, systemic / in life observation / body weight / fetal weight
# [23] = group: maternal, systemic / in life observation / body weight / body weight + systemic / in life observation / food consumption / food consumption
# [24] = group: maternal, systemic / in life observation / body weight / body weight + systemic / in life observation / food consumption / food consumption + …
# [25] = group: maternal, systemic / in life observation / food consumption / food consumption
# [26] = group: maternal, systemic / in life observation / food consumption / food consumption + reproductive / reproductive performance / postimplantation loss / …
# [27] = group: maternal, systemic / in life observation / body weight / body weight + systemic / in life observation / food consumption / food consumption + systemic…
# [28] = systemic / in life observation / body weight / body weight
# [29] = systemic / in life observation / body weight / body weight + systemic / in life observation / clinical signs / labored respiration + …
# [30] = systemic / pathology microscopic / brain / corpora amylacea + systemic / pathology microscopic / adrenal gland / adenoma + systemic / …
# [31] = systemic / in life observation / body weight / body weight + systemic / in life observation / clinical signs / unsteady gait
compound,measurement,setting,value
CCOc1ccc2[nH]cc(C(=O)NCc3ccccc3)c(=O)c2n1,LOAEL,rat [1]; [15],> 198 mg/kg/day
same,NOAEL,rat [1]; [15],≥ 198 mg/kg/day
same,LEL,rat [1]; [16],10 mg/kg/day
same,NEL,rat [1]; [16],< 10 mg/kg/day
same,LEL,dog [2]; [17],1 mg/kg/day
same,NEL,dog [2]; [17],< 1 mg/kg/day
same,LOAEL,dog [2]; [18],> 80 mg/kg/day
same,NOAEL,dog [2]; [18],≥ 80 mg/kg/day
same,LEL,rat [3],240 mg/kg/day
same,LOAEL,rat [3],> 240 mg/kg/day
same,NEL,rat [3],< 240 mg/kg/day
same,NOAEL,rat [3],≥ 240 mg/kg/day
same,LOAEL,rat [4]; [19],> 160 mg/kg/day
same,NOAEL,rat [4]; [19],≥ 160 mg/kg/day
same,LEL,rat [4]; [20],5 mg/kg/day
same,NEL,rat [4]; [20],< 5 mg/kg/day
same,LEL,rat [5]; [16],10 mg/kg/day
same,NEL,rat [5]; [16],< 10 mg/kg/day
same,LOAEL,rat [5]; [21],> 240 mg/kg/day
same,NOAEL,rat [5]; [21],≥ 240 mg/kg/day
same,LEL,dog [6],26 mg/kg/day
same,LOAEL,dog [6],> 26 mg/kg/day
same,NEL,dog [6],6 mg/kg/day
same,NOAEL,dog [6],≥ 26 mg/kg/day
CCCOc1sc(C(=O)N2CCC(c3cc(CN)ccc3F)CC2)c(C)c1Br.Cl [AVE8923],LEL,rat [7]; [22],100 mg/kg/day
same,LOAEL,rat [7]; [22],100 mg/kg/day
same,NEL,rat [7]; [22],25 mg/kg/day
same,NOAEL,rat [7]; [22],25 mg/kg/day
same,NEL,rat [7]; [23],25 mg/kg/day
same,NOAEL,rat [7]; [23],25 mg/kg/day
same,LEL,rat [7]; [24],100 mg/kg/day
same,LOAEL,rat [7]; [24],100 mg/kg/day
same,LEL,rat [8]; [22],75 mg/kg/day
same,LOAEL,rat [8]; [22],75 mg/kg/day
same,NEL,rat [8]; [22],25 mg/kg/day
same,NOAEL,rat [8]; [22],25 mg/kg/day
same,LEL,rat [8]; [25],75 mg/kg/day
same,LOAEL,rat [8]; [25],75 mg/kg/day
same,NEL,rat [8]; [26],25 mg/kg/day
same,NOAEL,rat [8]; [26],25 mg/kg/day
same,LEL,rabbit [9]; [22],200 mg/kg/day
same,LOAEL,rabbit [9]; [22],> 200 mg/kg/day
same,NEL,rabbit [9]; [22],100 mg/kg/day
same,NOAEL,rabbit [9]; [22],≥ 200 mg/kg/day
same,LEL,rabbit [9]; [27],200 mg/kg/day
same,LOAEL,rabbit [9]; [27],> 200 mg/kg/day
same,NEL,rabbit [9]; [27],100 mg/kg/day
same,NOAEL,rabbit [9]; [27],≥ 200 mg/kg/day
same,LEL,rabbit [10],50 mg/kg/day
same,LOAEL,rabbit [10],> 300 mg/kg/day
same,NEL,rabbit [10],< 50 mg/kg/day
same,NOAEL,rabbit [10],≥ 300 mg/kg/day
OCc1ccccc1 [Benzyl alcohol],LEL,rat [11]; [28],200 mg/kg/day
same,LOAEL,rat [11]; [28],400 mg/kg/day
same,NEL,rat [11]; [29],100 mg/kg/day
same,NOAEL,rat [11]; [29],200 mg/kg/day
same,NEL,mouse [12]; systemic / pathology microscopic / brain / corpora amylacea,100 mg/kg/day
same,LEL,mouse [12]; [30],200 mg/kg/day
same,LOAEL,mouse [12]; [30],> 200 mg/kg/day
same,NOAEL,mouse [12]; [30],≥ 200 mg/kg/day
same,LEL,mouse [13]; [28],400 mg/kg/day
same,LOAEL,mouse [13]; [31],800 mg/kg/day
same,NEL,mouse [13]; [31],200 mg/kg/day
same,NOAEL,mouse [13]; [31],400 mg/kg/day
same,LEL,rat [14],200 mg/kg/day
same,LOAEL,rat [14],> 400 mg/kg/day
same,NEL,rat [14],< 200 mg/kg/day
same,NOAEL,rat [14],≥ 400 mg/kg/day
